Experimental data from ChEMBL document CHEMBL1201862, “PubChem BioAssay data set” (2004).
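Tested at 5 concentrations; 48 h exposure; 96-well plates; endpoints linearly interpolated, else capped at highest concentration. Here, GI50 denotes the concentration required for 50% inhibition of growth.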 The source made the active and inactive calls. No stated cut-off is given here; in the data, active = GI50 up to about 1.1 µM and inactive = higher.

Columns and labels:
Experiment in all cases: growth of human tumour cells (NCI), 48 h
MCF7 = system: MCF7
SK-MEL-2 = system: SK-MEL-2
SNB-19 = system: SNB-19
PC-3 = system: PC-3
MDA-MB-231 = system: MDA-MB-231
OVCAR-8 = system: OVCAR-8
NCI/ADR-RES = system: NCI/ADR-RES
786-0 = system: 786-0
EKVX = system: EKVX
MDA-N = system: MDA-N
IGROV-1 = system: IGROV-1
CCRF-CEM = system: CCRF-CEM
T47D = system: T47D
COLO 205 = system: COLO 205
Hs-578T = system: Hs-578T
RXF 393 = system: RXF 393
BT-549 = system: BT-549
SK-OV-3 = system: SK-OV-3
U-251 = system: U-251
MOLT-4 = system: MOLT-4
HCT-116 = system: HCT-116
M14 = system: M14
KM12 = system: KM12
OVCAR-4 = system: OVCAR-4
K562 = system: K562
DU-145 = system: DU-145
OVCAR-3 = system: OVCAR-3
SR = system: SR
SK-MEL-28 = system: SK-MEL-28
OVCAR-5 = system: OVCAR-5
UACC-257 = system: UACC-257
HL-60 = system: HL-60
SF-539 = system: SF-539
HOP-62 = system: HOP-62
ACHN = system: ACHN
A498 = system: A498
NCI-H460 = system: NCI-H460
SN12C = system: SN12C
SF-295 = system: SF-295
SNB-75 = system: SNB-75
TK-10 = system: TK-10
CAKI-1 = system: CAKI-1
UACC-62 = system: UACC-62
SW-620 = system: SW-620
A549 = system: A549
MDA-MB-435 = system: MDA-MB-435
UO-31 = system: UO-31
SK-MEL-5 = system: SK-MEL-5
HOP-92 = system: HOP-92
HCT-15 = system: HCT-15
HCC 2998 = system: HCC 2998
RPMI-8226 = system: RPMI-8226
HT-29 = system: HT-29
SF-268 = system: SF-268
LOX IMVI = system: LOX IMVI
NCI-H23 = system: NCI-H23
NCI-H226 = system: NCI-H226
Malme-3M = system: Malme-3M
NCI-H522 = system: NCI-H522

Measured: GI50

C[N+](C)(C)CCOP(=O)(O)OP(=O)([O-])OCC1CCC(n2ccc(N)nc2=O)O1 (stereo unspecified)
inactive: MCF7 > 100 µM | SK-MEL-2 > 100 µM | SNB-19 > 100 µM | PC-3 > 100 µM | MDA-MB-231 > 100 µM | OVCAR-8 > 100 µM | NCI/ADR-RES > 100 µM | 786-0 > 100 µM | EKVX > 100 µM | MDA-N > 100 µM | IGROV-1 > 100 µM | CCRF-CEM > 100 µM | T47D > 100 µM | COLO 205 > 100 µM | Hs-578T > 100 µM | RXF 393 > 100 µM | BT-549 > 100 µM | SK-OV-3 > 100 µM | U-251 > 100 µM | MOLT-4 > 100 µM | HCT-116 > 100 µM

COc1cc(/C=C2\N=C(c3ccccc3)N(c3nc4c(Cl)cc(Cl)cc4s3)C2=O)ccc1O
31.3 µM: HCT-15
inactive: M14 40.5 µM | KM12 25.4 µM | MCF7 28.1 µM | SK-MEL-2 23.4 µM | OVCAR-4 29.2 µM | K562 24.8 µM | SNB-19 36.6 µM | PC-3 19.5 µM | DU-145 34.8 µM | OVCAR-3 24.2 µM | SR 11.1 µM | MDA-MB-231 25.8 µM | SK-MEL-28 52 µM | OVCAR-8 31.8 µM | NCI/ADR-RES 31 µM | OVCAR-5 71 µM | UACC-257 30.9 µM | HL-60 16.3 µM | SF-539 41.6 µM | HOP-62 32 µM | 786-0 35.9 µM | EKVX 17.9 µM | ACHN 25.8 µM | A498 17.8 µM | IGROV-1 29.1 µM | CCRF-CEM 13.6 µM | T47D 24.8 µM | COLO 205 43.4 µM | NCI-H460 28.3 µM | SN12C 22.2 µM | SF-295 34.4 µM | SNB-75 39.3 µM | TK-10 39.9 µM | CAKI-1 46.3 µM | UACC-62 25.8 µM | SW-620 32.4 µM | Hs-578T 18.2 µM | RXF 393 20.9 µM | BT-549 21.1 µM | A549 30.8 µM | MDA-MB-435 27.5 µM | UO-31 27 µM | SK-MEL-5 24.5 µM | SK-OV-3 55.7 µM | HOP-92 21.3 µM | HCC 2998 19.8 µM | U-251 22.9 µM | RPMI-8226 8.53 µM | HCT-116 24 µM | HT-29 27.7 µM | SF-268 30.1 µM | LOX IMVI 20.5 µM
active: MOLT-4 0.059 µM

C/C(=N\Nc1nc2ccccc2n1C)c1cnccn1
0.0438 µM: HCT-15
active: M14 0.064 µM | KM12 0.824 µM | MCF7 0.0246 µM | SK-MEL-2 0.839 µM | OVCAR-4 0.0504 µM | K562 < 0.0316 µM | PC-3 0.0426 µM | OVCAR-3 0.0326 µM | SR 0.0649 µM | MDA-MB-231 0.044 µM | SK-MEL-28 0.565 µM | OVCAR-8 0.0615 µM | NCI/ADR-RES 0.164 µM | UACC-257 0.0483 µM | HL-60 0.0178 µM | SF-539 0.692 µM | HOP-62 0.537 µM | 786-0 0.0671 µM | EKVX 0.0424 µM | ACHN 0.065 µM | MDA-N 0.753 µM | A498 0.684 µM | NCI-H23 0.105 µM | IGROV-1 0.0435 µM | CCRF-CEM 0.0513 µM | T47D 0.0702 µM | COLO 205 < 0.0139 µM | NCI-H460 0.223 µM | SN12C 0.0395 µM | SF-295 0.367 µM | TK-10 0.0703 µM | NCI-H226 0.256 µM | CAKI-1 0.0348 µM | UACC-62 0.366 µM | SW-620 0.0418 µM | Malme-3M 0.065 µM | A549 0.218 µM | MDA-MB-435 0.55 µM | UO-31 0.0407 µM | SK-MEL-5 0.154 µM | SK-OV-3 0.292 µM | HOP-92 0.227 µM | NCI-H522 0.129 µM | U-251 0.339 µM | RPMI-8226 < 0.0297 µM | MOLT-4 < 0.0261 µM | HCT-116 0.0265 µM | HT-29 0.0418 µM | SF-268 0.0726 µM | LOX IMVI 0.129 µM
inactive: SNB-19 2.73 µM | SNB-75 5.13 µM | RXF 393 1.23 µM | BT-549 5.25 µM | HCC 2998 1.33 µM
